PubChem BioAssay (NCI)
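Method: 48-hour compound exposure of cells in 96-well plates, five concentrations, linear interpolation of endpoints. TGI is the concentration that stops growth completely.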

Experiments:
Test in all cases: NCI anticancer screen, dose series, 48 h
[1] = test system: EKVX NSCLC
[2] = test system: A498 renal
[3] = test system: SK-MEL-28 melanoma
[4] = test system: HCC-2998 colon
[5] = test system: HCT-116 colon
[6] = test system: COLO 205 colon
[7] = test system: UACC-62 melanoma
[8] = test system: ACHN renal
[9] = test system: HL-60(TB) leukemia
[10] = test system: SNB-19 CNS
[11] = test system: PC-3 prostate
[12] = test system: RXF 393 renal
[13] = test system: MALME-3M melanoma
[14] = test system: NCI-H226 lung
[15] = test system: A549 NSCLC
[16] = test system: MDA-MB-435
[17] = test system: UO-31 renal
[18] = test system: SW-620 colon
[19] = test system: HOP-92 NSCLC
[20] = test system: M14 melanoma
[21] = test system: HS 578T breast
[22] = test system: SF-295 CNS
[23] = test system: IGROV1 ovarian
[24] = test system: SK-OV-3 ovarian
[25] = test system: NCI/ADR-RES ovarian
[26] = test system: HT29 colon
[27] = test system: K-562 leukemia
[28] = test system: UACC-257 melanoma
[29] = test system: OVCAR-8 ovarian
[30] = test system: 786-0 renal
[31] = test system: SK-MEL-2 melanoma
[32] = test system: OVCAR-4 ovarian
[33] = test system: SF-268 CNS
[34] = test system: CAKI-1 renal
[35] = test system: HCT-15 colon
[36] = test system: HOP-62 NSCLC
[37] = test system: RPMI-8226 leukemia
[38] = test system: NCI-H460 lung
[39] = test system: SN12C renal
[40] = test system: CCRF-CEM leukemia
[41] = test system: TK-10 renal
[42] = test system: T-47D breast
[43] = test system: NCI-H522 lung
[44] = test system: DU-145 prostate
[45] = test system: BT-549 breast
[46] = test system: OVCAR-5 ovarian
[47] = test system: U251 CNS
[48] = test system: MCF7 breast
[49] = test system: KM12 colon
[50] = test system: NCI-H23 lung
[51] = test system: LOX IMVI melanoma
[52] = test system: SR leukemia
[53] = test system: SK-MEL-5 melanoma
[54] = test system: MOLT-4 leukemia
[55] = test system: MDA-N
[56] = test system: MDA-MB-231 breast

COc1cc(/C=C/c2nc(N)nnc2C)cc(OC)c1OC
TGI [1]: > 72.9 µM | TGI [2]: > 71.6 µM | TGI [3]: > 100 µM | TGI [4]: 29.5 µM | TGI [5]: > 53.9 µM | TGI [6]: > 53 µM | TGI [7]: > 50.3 µM | TGI [8]: > 56.1 µM | TGI [9]: 8.36 µM | TGI [10]: > 82.2 µM | TGI [11]: > 53 µM | TGI [12]: > 64.4 µM | TGI [13]: 32.8 µM | TGI [14]: > 55.4 µM | TGI [15]: > 79.4 µM | TGI [16]: > 94.7 µM | TGI [17]: > 42 µM | TGI [18]: > 100 µM | TGI [19]: > 100 µM | TGI [20]: > 56.4 µM | TGI [21]: > 67.5 µM | TGI [22]: > 72.6 µM | TGI [23]: 37.3 µM | TGI [24]: > 65.6 µM | TGI [25]: > 90.2 µM | TGI [26]: 39 µM | TGI [27]: 71.2 µM | TGI [28]: > 59.8 µM | TGI [29]: > 100 µM | TGI [30]: > 60.6 µM | TGI [31]: > 54.4 µM | TGI [32]: > 73.7 µM | TGI [33]: > 54.4 µM | TGI [34]: > 100 µM | TGI [35]: 38.9 µM | TGI [36]: 29 µM | TGI [37]: 52.5 µM | TGI [38]: > 58.5 µM | TGI [39]: > 100 µM | TGI [40]: 55.4 µM | TGI [41]: > 77.3 µM | TGI [42]: > 100 µM | TGI [43]: 21.7 µM | TGI [44]: > 100 µM | TGI [45]: > 64 µM | TGI [46]: > 58.9 µM | TGI [47]: > 100 µM | TGI [48]: > 100 µM | TGI [49]: > 50.5 µM | TGI [50]: > 68.1 µM | TGI [51]: > 35.9 µM | TGI [52]: > 100 µM | TGI [53]: 52.2 µM | TGI [54]: > 90.7 µM | TGI [55]: > 100 µM | TGI [56]: > 100 µM
